Consider 27 molecules from patent publication US20230219962A1, “PYRAZOLO[4,3-d]PYRIMIDINE DERIVATIVES AND METHODS OF USE THEREOF FOR THE TREATMENT OF CELLULAR PROLIFERATIVE DISORDERS” (Merck Sharp & Dohme LLC, priority 2020, published 2023).

Some results are limits rather than exact numbers.

The target of one test is T1, hTLR7 (Homo sapiens, UniProt Q9NYK1).
T1 construct: host or cells: HEK-Blue hTLR7 cells (HEK293-derived, own knowledge)
T1 sequence (Q9NYK1 27-1049): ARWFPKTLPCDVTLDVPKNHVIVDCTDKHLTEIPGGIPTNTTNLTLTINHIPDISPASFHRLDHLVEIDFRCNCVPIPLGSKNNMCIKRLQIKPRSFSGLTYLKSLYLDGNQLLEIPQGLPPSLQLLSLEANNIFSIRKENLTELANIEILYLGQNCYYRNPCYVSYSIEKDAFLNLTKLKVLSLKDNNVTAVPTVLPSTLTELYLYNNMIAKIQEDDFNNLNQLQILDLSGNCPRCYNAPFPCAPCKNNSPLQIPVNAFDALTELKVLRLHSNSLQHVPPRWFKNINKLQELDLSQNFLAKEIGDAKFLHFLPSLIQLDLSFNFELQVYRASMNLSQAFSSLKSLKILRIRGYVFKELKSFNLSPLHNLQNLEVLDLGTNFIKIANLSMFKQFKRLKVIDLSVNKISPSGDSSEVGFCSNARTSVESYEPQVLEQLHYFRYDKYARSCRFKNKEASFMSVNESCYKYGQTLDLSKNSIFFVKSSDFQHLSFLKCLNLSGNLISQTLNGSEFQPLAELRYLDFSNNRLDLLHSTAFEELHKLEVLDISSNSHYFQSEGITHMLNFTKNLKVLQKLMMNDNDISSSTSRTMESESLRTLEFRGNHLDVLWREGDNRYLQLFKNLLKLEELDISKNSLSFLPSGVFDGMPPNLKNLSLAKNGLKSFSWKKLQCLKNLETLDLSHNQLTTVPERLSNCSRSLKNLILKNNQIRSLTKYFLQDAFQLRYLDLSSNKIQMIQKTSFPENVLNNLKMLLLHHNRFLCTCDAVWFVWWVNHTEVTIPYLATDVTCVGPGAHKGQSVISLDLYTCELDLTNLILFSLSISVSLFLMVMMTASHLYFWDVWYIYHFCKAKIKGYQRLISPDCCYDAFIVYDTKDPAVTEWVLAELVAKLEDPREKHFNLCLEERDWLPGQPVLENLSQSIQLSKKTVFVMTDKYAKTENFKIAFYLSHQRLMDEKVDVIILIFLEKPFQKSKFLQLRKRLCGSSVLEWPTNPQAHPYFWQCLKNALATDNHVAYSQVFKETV
Kind of test: Human TLR7 Reporter Assay. The format is cell-based. The conditions noted are these: HEK-Blue hTLR7 cells, 16 hours, normalized to CL097 (6 μM) and DMSO. The protocol: (§1) HEK-Blue™ hTLR7 cells (Invivogen, San Diego, Calif.) were maintained at 37° C./5% CO2/90% relative humidity in Dulbecco's Modified Eagle's Medium with 10% fetal bovine serum, 100 units/mL penicillin, 100 μg/mL streptomycin, 100 μg/mL normocin, 10 μg/mL blasticidin, and 100 μg/mL zeocin. HEK-Blue™ hTLR7 cells were maintained at 10-90% confluence and used before passage 20. For this assay, test compounds were dissolved in DMSO, and 10-point serial 3-fold dilution series in DMSO were prepared in Echo Qualified 384-well Polypropylene Microplates (Labcyte, San Jose, Calif.). Assay plates (384-well flat, clear bottom, black polystyrene TC-treated microtiter plates; Corning, Corning, N.Y.) were prepared by dispensing 150 nL of test compounds, high control (CL097; Invivogen, San Diego, Calif.), and low control (DMSO) by ECHO acoustic dispenser (Labcyte, San Jose Calif.) followed by addition of 5 μL of HEK-Blue™ Detection assay media (Invivogen, San Diego, Calif.). HEK-Blue™ hTLR7 cells in HEK-Blue™ Detection assay media (20,000 cells per well in 45 μL of media) were added to the assay plate and incubated for 16 hours at 37° C./5% CO2/90% relative humidity. For detection, assay plates were removed from the incubator, allowed to cool to ambient temperature, centrifuged at 200×g for 1 minutes, and read with an EnSpire Multimode Plate Reader (Perkin Elmer, Waltham, Mass.) for absorbance at 620 nm. Test compound effects were normalized to the window defined by the controls, CL097 (6 μM), and DMSO. Calculated % effects were fit using a 4-parameter algorithm, and EC50 was reported.
On the technique in general: Reporter assays use an easily measured gene product as a stand-in for the process of interest.

The target in a further test is T2, hTLR8 (Homo sapiens, UniProt Q9NR97).
T2 construct: host or cells: HEK-Blue hTLR8 cells (HEK293-derived, own knowledge)
T2 sequence (Q9NR97 27-1041): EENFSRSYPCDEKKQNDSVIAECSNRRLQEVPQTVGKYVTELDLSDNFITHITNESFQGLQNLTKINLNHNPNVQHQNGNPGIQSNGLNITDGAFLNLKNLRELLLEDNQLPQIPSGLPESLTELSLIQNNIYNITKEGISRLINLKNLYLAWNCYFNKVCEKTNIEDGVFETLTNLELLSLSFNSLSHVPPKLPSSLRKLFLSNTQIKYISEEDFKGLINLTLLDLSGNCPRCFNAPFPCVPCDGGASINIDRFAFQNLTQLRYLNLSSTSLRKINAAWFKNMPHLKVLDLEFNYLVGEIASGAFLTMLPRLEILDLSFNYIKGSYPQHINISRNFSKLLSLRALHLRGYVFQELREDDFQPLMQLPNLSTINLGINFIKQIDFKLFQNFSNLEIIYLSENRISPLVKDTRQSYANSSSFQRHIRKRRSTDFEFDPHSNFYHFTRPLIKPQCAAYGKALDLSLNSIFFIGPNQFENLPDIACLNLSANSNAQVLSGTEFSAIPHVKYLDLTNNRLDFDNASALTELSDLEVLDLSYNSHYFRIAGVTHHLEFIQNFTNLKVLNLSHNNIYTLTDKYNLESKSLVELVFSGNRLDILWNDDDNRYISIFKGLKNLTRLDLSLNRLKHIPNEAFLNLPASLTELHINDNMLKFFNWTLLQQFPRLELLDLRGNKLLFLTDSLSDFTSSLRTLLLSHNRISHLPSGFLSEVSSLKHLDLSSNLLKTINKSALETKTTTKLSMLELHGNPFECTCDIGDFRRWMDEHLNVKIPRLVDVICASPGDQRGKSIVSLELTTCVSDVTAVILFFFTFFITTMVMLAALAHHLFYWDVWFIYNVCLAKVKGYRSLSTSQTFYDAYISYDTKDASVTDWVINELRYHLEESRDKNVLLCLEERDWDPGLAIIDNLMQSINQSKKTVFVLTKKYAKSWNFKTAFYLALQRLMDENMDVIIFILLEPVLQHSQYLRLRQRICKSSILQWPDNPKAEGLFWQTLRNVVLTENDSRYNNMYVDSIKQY
The test is described as follows: Human TLR8 Reporter Assay. The settings on record: HEK-Blue hTLR8 cells, 16 hours, normalized to tl8-506 (1 μM) and DMSO. The class given is cell-based. On the procedure: as §1, with “hTLR8” for “hTLR7”, “(tl8-506;” for “(CL097;”, “tl8-506 (1” for “CL097 (6”

Consider `CCCCNc1nc(N)nc2cn(Cc3c(OCC)cccc3OCC)nc12` [Compound 40], for which the EC50 is 125 nM on hTLR7 and 813 nM at hTLR8.
The like results for `CCCCNc1nc(N)nc2cn(Cc3c(OC)cc(CNC(=O)C4CCC(CN5C(=O)C=CC5=O)CC4)cc3OC)nc12` (stereo not drawn) [Compound 72] were, in that order, 597 nM and over 29900 nM.
For the molecule `CCCCNc1nc(N)nc2cn(Cc3ccc(C4CCCN4)cc3)nc12` (stereo not drawn) [Compound 205], the EC50 at hTLR7 is 409 nM; on hTLR8 it was 519 nM.
In the same order, the values of `CCCCNc1nc(N)nc2cn(Cc3cc(CNC)ccc3OC)nc12` [Compound 148] are 370 nM and 590 nM.
In the same order, the values of `CCCCNc1nc(N)nc2cn(Cc3ccccc3C)nc12` [Compound 3] are 1220 nM and over 29900 nM.
The like results for `CCCCNc1nc(N)nc2cn(Cc3ccc(C(N)CCN)cc3OC)nc12` (stereo not drawn) [Compound 228] were, in that order, 2370 nM and 7020 nM.
On to `CCCCNc1nc(N)nc2cn(Cc3ccc(CN)cc3OC)nc12` [Compound 137], for which the EC50 on hTLR7 worked out at 439 nM; on hTLR8, 692 nM.
For `CCCCNc1nc(N)nc2cn(Cc3ccc(N4CCNCC4)cc3OC)nc12` [Compound 58], the figures for the EC50 on hTLR7 and on hTLR8 were 228 nM and 345 nM, respectively.
In the same order, the values of `CCCCNc1nc(N)nc2cn(Cc3c(OC)cc(C(C)N)cc3OC)nc12` (stereo not drawn) [Compound 215] are 474 nM and 224 nM.
In the case of `CCCCNc1nc(N)nc2cn(Cc3ccc(C(C)N(C)C)cc3OC)nc12` (stereo not drawn) [Compound 220], the EC50 at hTLR7 is 118 nM; on hTLR8, 170 nM.
In the same order, the values of `CCCCNc1nc(N)nc2cn(Cc3cc(N4CCNCC4)ccc3OC)nc12` [Compound 59] are 964 nM and 2640 nM.
In the same order, the values of `CCCCNc1nc(N)nc2cn(Cc3ccccc3)nc12` [Compound 2] are 1090 nM and 4210 nM.
The like results for `CCCCNc1nc(N)nc2cn(Cc3ccc(CN4CC(CN)C4)cc3OC)nc12` [Compound 118] were, in that order, 249 nM and 144 nM.
Consider `CCCCNc1nc(N)nc2cn(Cc3ccc(C4CCC(=O)N4)cc3)nc12` (stereo not drawn) [Compound 203], for which the results for the EC50 on hTLR7 and on hTLR8 were 526 nM and 11400 nM, respectively.
`CCCCNc1nc(N)nc2cn(Cc3c(OC)cc(CN)cc3OC)nc12` [Compound 66]: the EC50 amounted to 493 nM on hTLR7 and 199 nM on hTLR8.
In the same order, the values of `CCCCNc1nc(N)nc2cn(C(C)c3ccccc3OC)nc12` (stereo not drawn) [Compound 102] are 1410 nM and over 9980 nM.
For `CCCCNc1nc(N)nc2cn(Cc3nccnc3OC)nc12` [Compound 111], the EC50 on hTLR7 was found to be 81.8 nM; on hTLR8, 597 nM.
The like results for `CCCCNc1nc(N)nc2cn(Cc3c(OC)cc(C(C)NC)cc3OC)nc12` (stereo not drawn) [Compound 209] were, in that order, 200 nM and 161 nM.
The like results for `CCCCNc1nc(N)nc2cn(Cc3ccc(C4CCC(=O)N4)cc3)nc12` (stereo not drawn) [Compound 201] were, in that order, 539 nM and 3260 nM.
In the same order, the values of `CCC[C@@H](CO)Nc1nc(N)nc2cn(Cc3ncc(CNC)cc3OC)nc12` [Compound 195] are 1590 nM and 785 nM.
For the molecule `COCCNc1nc(N)nc2cn(Cc3c(OC)cccc3OC)nc12` [Compound 46], the EC50 on hTLR7 worked out at 353 nM; at hTLR8, 1080 nM.
In the same order, the values of `CCCCNc1nc(N)nc2cn(Cc3ccc(C(C)NC)cc3OC)nc12` (stereo not drawn) [Compound 194] are 139 nM and 137 nM.
In the same order, the values of `CCCCNc1nc(N)nc2cn(Cc3ccc(C(C)NCCC)cc3OC)nc12` (stereo not drawn) [Compound 217] are 51.7 nM and 91.7 nM.
Regarding `CCC[C@@H](CO)Nc1nc(N)nc2cn(Cc3ccc(N4CCNCC4)cc3OC)nc12` [Compound 150], the EC50 on hTLR7 stood at 1620 nM; at hTLR8 it was 1640 nM.
In the same order, the values of `CCCCNc1nc(N)nc2cn(Cc3ccc(C4CCNCC4)nc3OC)nc12` [Compound 138] are 191 nM and 1780 nM.
Regarding `CCCCNc1nc(N)nc2cn(Cc3c(OC)cc(CNC(=O)C4CCC(CN5C(=O)CC(SC[C@H](N)C(=O)O)C5=O)CC4)cc3OC)nc12` (stereo partly drawn) [Compound 92], the EC50 on hTLR7 was found to be 2260 nM; at hTLR8 it was 11600 nM.
For `CCCCNc1nc(N)nc2cn(Cc3cccc(N4CCNCC4)c3OC)nc12` [Compound 132], the results for the EC50 at hTLR7 and at hTLR8 were 708 nM and 1490 nM, respectively.

As usually defined, the EC50 is the concentration at which the effect is half-maximal.
